Key:
BCL2 D103Y = BCL2 D103Y (Homo sapiens, UniProt P10415, D103Y); test: TR-FRET competitive binding assay, BCL2 D103Y; details: Ki determined from IC50, read-out: TR_FRET EKI_Bcl2 D103Y
In short: (§1)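 Competitive TR-FRET displacement of fluorescein-PUMA peptide (2 or 20 nM) from 0.5 nM terbium-labelled N-terminal Halo-fusion BCL2 (1-207, wild type or mutant) or BCLXL (2-196), expressed in E. coli. Buffer 50 mM Hepes pH 7.5, 150 mM NaCl, 5% DMSO; 2 h at 23°C. 520/495 nm ratio fitted over 11 points for IC50, converted to Ki.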

BCL2 WT = BCL2 WT (Homo sapiens (Human), UniProt P10415); test: TR-FRET competitive binding assay, BCL2 WT; details: Ki determined from IC50, read-out: TR_FRET EKI_Bcl2 WT
In short: as §1

KMS-12-PE Bcl-2 WT = test: In vitro cytotoxicity CellTiter-Glo 48 h, KMS-12-PE Bcl-2 WT; type: cell-based; details: Homo sapiens, KMS-12-PE, C50 = concentration needed to reach 50% of the cellular viability
In short: (§2)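 Transduce KMS-12-PE with Bcl-2 WT or G101V lentivirus, then FACS-sort RFP-positive cells. Add compounds in an 11-point dilution series and incubate 48 h at 37 °C. Measure ATP-based luminescence with CellTiter-Glo and derive C50 (50% viability).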

BCL2 G101V [1] = target: BCL2 G101V (Homo sapiens, UniProt P10415, G101V); test: TR-FRET competitive binding assay, BCL2 G101V; details: BCL2 G101V; Ki determined from IC50; read-out: TR_FRET EKI_Bcl2 G101V
In short: as §1

BCL2 G101V [2] = test: TR-FRET competitive binding assay, BCL2 G101V; set-up: species or system human; details: ratio Ki BCL2 G101V / Ki BCL2 WT
In short: as §1

KMS-12-PE Bcl-2 G101V = test: In vitro cytotoxicity CellTiter-Glo 48 h, KMS-12-PE Bcl-2 G101V; type: cell-based; details: for Ratio (G101V/WT): C50 KMS-12-PE Bcl-2 G101V over C50 KMS-12-PE Bcl-2 WT; for IC50: Homo sapiens, KMS-12-PE, 48 h, CellTiter-Glo, C50 = concentration needed to reach 50% of the cellular viability
In short: as §2

BCLXL WT = BCLXL WT (Homo sapiens (Human), UniProt Q07817); test: TR-FRET competitive binding assay, BCLXL WT; details: for Ki: BCLXL WT, Ki determined from IC50, read-out: TR_FRET EKI BclxL; for TR_FRET EKI BCLxL/WT selectivty ratio: ratio Ki BCLxL / Ki BCL2 WT
In short: as §1

BCLXL WT, sequence (Q07817 other isoform, or with tags, fused parts or gaps): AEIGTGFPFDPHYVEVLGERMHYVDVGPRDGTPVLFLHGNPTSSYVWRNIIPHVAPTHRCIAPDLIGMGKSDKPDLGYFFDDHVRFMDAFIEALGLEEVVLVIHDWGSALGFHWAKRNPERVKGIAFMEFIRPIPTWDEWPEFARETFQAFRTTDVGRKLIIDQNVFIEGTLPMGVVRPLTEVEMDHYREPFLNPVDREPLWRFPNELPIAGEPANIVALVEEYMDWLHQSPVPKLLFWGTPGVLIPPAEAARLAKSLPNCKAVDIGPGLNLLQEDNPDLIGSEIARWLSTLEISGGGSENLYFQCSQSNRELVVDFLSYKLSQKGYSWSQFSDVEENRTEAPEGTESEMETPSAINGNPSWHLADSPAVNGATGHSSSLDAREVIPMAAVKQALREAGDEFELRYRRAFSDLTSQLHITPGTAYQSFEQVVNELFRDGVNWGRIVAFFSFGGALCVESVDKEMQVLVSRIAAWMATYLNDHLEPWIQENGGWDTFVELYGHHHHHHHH

`Cc1c(C(=O)N(c2ccc(O)cc2)c2cc(C#N)n(C(F)F)c2C)cc(-c2cc3c(cc2C(=O)N2Cc4ccccc4C[C@H]2CN2CCCCC2)CN(C(=O)Cc2ccc(OCCN4CCN(CCF)CC4)cc2F)CC3)n1C` [Example 159, N-[5-cyano-1-(difluoromethyl)-2-methylpyrrol-3-yl]-5-{2-[2-(2-fluoro-4-{2-[4-(2-fluoroethyl)piperazin-1-yl]ethoxy}phenyl)acetyl]-7-{[(3S)-3-(piperidin-1-ylmethyl)-3,4-dihydro-1H-isoquinolin-2-yl]carbonyl}-3,4-dihydro-1H-isoquinolin-6-yl}-N-(4-hydroxyphenyl)-1,2-dimethylpyrrole-3-carboxamide] was tested, and the Ki (BCL2 D103Y) was 0.13 nM, the Ki (BCL2 WT) was 0.05 nM and the IC50 (KMS-12-PE Bcl-2 WT) was 0.0079 µM. For the same molecule, the Ki (BCL2 G101V [1]) was 0.3 nM, the “TR_FRET EKI G101V/WT selectivty ratio” value (BCL2 G101V [2]) was 5.1 and the “Ratio (G101V/WT)” value (KMS-12-PE Bcl-2 G101V) was 4.9873. The IC50 (KMS-12-PE Bcl-2 G101V) was 0.0392 µM, the Ki (BCLXL WT) was 3.7 nM and the “TR_FRET EKI BCLxL/WT selectivty ratio” value (BCLXL WT) was 69.8.
`Cc1c(C(=O)N(c2ccc(O)cc2)c2cc(C#N)n(C(F)F)c2C)cc(-c2cc3c(cc2C(=O)N2Cc4ccccc4C[C@H]2CN2CCCCC2)CN(C(=O)Cc2ccc(OCCN4CCN(C)CC4)cc2F)CC3)n1C` [Example 160, N-[5-cyano-1-(difluoromethyl)-2-methylpyrrol-3-yl]-5-[2-(2-{2-fluoro-4-[2-(4-methylpiperazin-1-yl)ethoxy]phenyl}acetyl)-7-{[(3S)-3-(piperidin-1-ylmethyl)-3,4-dihydro-1H-isoquinolin-2-yl]carbonyl}-3,4-dihydro-1H-isoquinolin-6-yl]-N-(4-hydroxyphenyl)-1,2-dimethylpyrrole-3-carboxamide] gave a Ki (BCL2 D103Y) of 0.18 nM, a Ki (BCL2 WT) of 0.03 nM and an IC50 (KMS-12-PE Bcl-2 WT) of 0.0113 µM. The Ki (BCL2 G101V [1]) was 0.2 nM, the “TR_FRET EKI G101V/WT selectivty ratio” value (BCL2 G101V [2]) was 6.3 and the “Ratio (G101V/WT)” value (KMS-12-PE Bcl-2 G101V) was 3.8053. The IC50 (KMS-12-PE Bcl-2 G101V) was 0.043 µM, the Ki (BCLXL WT) was 1.5 nM and the “TR_FRET EKI BCLxL/WT selectivty ratio” value (BCLXL WT) was 55.6.
With `Cc1c(N(C(=O)c2cc(-c3cc4c(cc3C(=O)N3Cc5ccccc5C[C@H]3CN3CCCCC3)CN(C(=O)Cc3ccc(OCCN5CCOCC5)cc3Cl)CC4)n(C)c2C)c2ccc(O)cc2)cc(C#N)n1C` [Example 161, 5-[2-[2-[2-chloro-4-(2-morpholinoethoxy)phenyl]acetyl]-7-[(3S)-3-(1-piperidylmethyl)-3,4-dihydro-1H-isoquinoline-2-carbonyl]-3,4-dihydro-1H-isoquinolin-6-yl]-N-(5-cyano-1,2-dimethyl-pyrrol-3-yl)-N-(4-hydroxyphenyl)-1,2-dimethyl-pyrrole-3-carboxamide] the Ki (BCL2 D103Y) was 0.14 nM, the Ki (BCL2 WT) was 0.05 nM and the IC50 (KMS-12-PE Bcl-2 WT) was 0.0092 µM. For the same molecule, the Ki (BCL2 G101V [1]) was 0.3 nM, the “TR_FRET EKI G101V/WT selectivty ratio” value (BCL2 G101V [2]) was 7.0 and the “Ratio (G101V/WT)” value (KMS-12-PE Bcl-2 G101V) was 4.6212. The IC50 (KMS-12-PE Bcl-2 G101V) was 0.0427 µM, the Ki (BCLXL WT) was 2.9 nM and the “TR_FRET EKI BCLxL/WT selectivty ratio” value (BCLXL WT) was 61.7.
In the case of `Cc1c(C(=O)N(c2ccc(O)cc2)c2cc(C#N)n(C(F)F)c2C)cc(-c2cc3c(cc2C(=O)N2Cc4ccccc4C[C@H]2CN2CCCCC2)CN(C(=O)Cc2ccc(OCCN(C)C4CC4)cc2)CC3)n1C` [Example 163, N-[5-cyano-1-(difluoromethyl)-2-methyl-pyrrol-3-yl]-5-[2-[2-[4-[2-[cyclopropyl(methyl)amino]ethoxy]phenyl]acetyl]-7-[(3S)-3-(1-piperidylmethyl)-3,4-dihydro-1H-isoquinoline-2-carbonyl]-3,4-dihydro-1H-isoquinolin-6-yl]-N-(4-hydroxyphenyl)-1,2-dimethyl-pyrrole-3-carboxamide], the Ki (BCL2 D103Y) is reported as 0.64 nM, the Ki (BCL2 WT) is reported as 0.16 nM and the IC50 (KMS-12-PE Bcl-2 WT) is reported as 0.01 µM. The Ki (BCL2 G101V [1]) was 0.8 nM, the “TR_FRET EKI G101V/WT selectivty ratio” value (BCL2 G101V [2]) was 5.3 and the “Ratio (G101V/WT)” value (KMS-12-PE Bcl-2 G101V) was 5.97. The IC50 (KMS-12-PE Bcl-2 G101V) was 0.0597 µM, the Ki (BCLXL WT) was 8.3 nM and the “TR_FRET EKI BCLxL/WT selectivty ratio” value (BCLXL WT) was 51.9.
`COc1ncc(N(C(=O)c2cc(-c3cc4c(cc3C(=O)N3Cc5ccccc5C[C@H]3CN3CCCCC3)CN(C(=O)Cc3ccc(OCCN5CCOCC5)cc3F)CC4)n(C)c2C)c2ccc(O)cc2)cc1F` [Example 164, 5-[2-(2-{2-fluoro-4-[2-(morpholin-4-yl)ethoxy]phenyl}acetyl)-7-{[(3S)-3-(piperidin-1-ylmethyl)-3,4-dihydro-1H-isoquinolin-2-yl]carbonyl}-3,4-dihydro-1H-isoquinolin-6-yl]-N-(5-fluoro-6-methoxypyridin-3-yl)-N-(4-hydroxyphenyl)-1,2-dimethylpyrrole-3-carboxamide] was tested, and the Ki (BCL2 D103Y) was 0.13 nM, the Ki (BCL2 WT) was 0.08 nM and the IC50 (KMS-12-PE Bcl-2 WT) was 0.0054 µM. The Ki (BCL2 G101V [1]) was 0.6 nM, the “TR_FRET EKI G101V/WT selectivty ratio” value (BCL2 G101V [2]) was 7.5 and the “Ratio (G101V/WT)” value (KMS-12-PE Bcl-2 G101V) was 9.1529. The IC50 (KMS-12-PE Bcl-2 G101V) was 0.0497 µM, the Ki (BCLXL WT) was 9.3 nM and the “TR_FRET EKI BCLxL/WT selectivty ratio” value (BCLXL WT) was 120.8.
Work on `COc1ccc(N(C(=O)c2cc(-c3cc4c(cc3C(=O)N3Cc5ccccc5C[C@H]3CN3CCCCC3)CN(C(=O)Cc3ccc(OCCN5CCOCC5)cc3F)CC4)n(C)c2C)c2ccc(O)cc2)cn1` [Example 165, 5-[2-(2-{2-fluoro-4-[2-(morpholin-4-yl)ethoxy]phenyl}acetyl)-7-{[(3S)-3-(piperidin-1-ylmethyl)-3,4-dihydro-1H-isoquinolin-2-yl]carbonyl}-3,4-dihydro-1H-isoquinolin-6-yl]-N-(4-hydroxyphenyl)-N-(6-methoxypyridin-3-yl)-1,2-dimethylpyrrole-3-carboxamide] yielded a Ki (BCL2 D103Y) of 0.13 nM, a Ki (BCL2 WT) of 0.04 nM and an IC50 (KMS-12-PE Bcl-2 WT) of 0.0092 µM. The Ki (BCL2 G101V [1]) was 0.8 nM, the “TR_FRET EKI G101V/WT selectivty ratio” value (BCL2 G101V [2]) was 21.1 and the “Ratio (G101V/WT)” value (KMS-12-PE Bcl-2 G101V) was 9.0393. The IC50 (KMS-12-PE Bcl-2 G101V) was 0.0828 µM, the Ki (BCLXL WT) was 10 nM and the “TR_FRET EKI BCLxL/WT selectivty ratio” value (BCLXL WT) was 277.8.
`Cc1c(N(C(=O)c2cc(-c3cc4c(cc3C(=O)N3Cc5ccccc5C[C@H]3CN3CCCCC3)CN(C(=O)Cc3ccc(OCCN5CCOC[C@H]5C)cc3F)CC4)n(C)c2C)c2ccc(O)cc2)cc(C#N)n1C` [Example 166, N-(5-cyano-1,2-dimethylpyrrol-3-yl)-5-{2-[2-(2-fluoro-4-{2-[(3R)-3-methylmorpholin-4-yl]ethoxy}phenyl)acetyl]-7-{[(3S)-3-(piperidin-1-ylmethyl)-3,4-dihydro-1H-isoquinolin-2-yl]carbonyl}-3,4-dihydro-1H-isoquinolin-6-yl}-N-(4-hydroxyphenyl)-1,2-dimethylpyrrole-3-carboxamide] showed a Ki (BCL2 D103Y) of 0.16 nM, a Ki (BCL2 WT) of 0.04 nM and an IC50 (KMS-12-PE Bcl-2 WT) of 0.0045 µM. The Ki (BCL2 G101V [1]) was 0.3 nM, the “TR_FRET EKI G101V/WT selectivty ratio” value (BCL2 G101V [2]) was 5.8 and the “Ratio (G101V/WT)” value (KMS-12-PE Bcl-2 G101V) was 6.5639. For the same molecule, the IC50 (KMS-12-PE Bcl-2 G101V) was 0.0298 µM, the Ki (BCLXL WT) was 2.7 nM and the “TR_FRET EKI BCLxL/WT selectivty ratio” value (BCLXL WT) was 62.8.
In the case of `COc1ccc(N(C(=O)c2cc(-c3cc4c(cc3C(=O)N3Cc5ccccc5C[C@H]3CN3CCCCC3)CN(C(=O)Cc3ccc(OCCN5CCOCC5)cc3F)CC4)n(C)c2C)c2ccc(O)cc2)cc1C#N` [Example 167, N-(3-cyano-4-methoxyphenyl)-5-[2-(2-{2-fluoro-4-[2-(morpholin-4-yl)ethoxy]phenyl}acetyl)-7-{[(3S)-3-(piperidin-1-ylmethyl)-3,4-dihydro-1H-isoquinolin-2-yl]carbonyl}-3,4-dihydro-1H-isoquinolin-6-yl]-N-(4-hydroxyphenyl)-1,2-dimethylpyrrole-3-carboxamide], the Ki (BCL2 D103Y) is reported as 0.15 nM, the Ki (BCL2 WT) is reported as 0.05 nM and the IC50 (KMS-12-PE Bcl-2 WT) is reported as 0.0078 µM. For the same molecule, the Ki (BCL2 G101V [1]) was 0.3 nM, the “TR_FRET EKI G101V/WT selectivty ratio” value (BCL2 G101V [2]) was 6.5 and the “Ratio (G101V/WT)” value (KMS-12-PE Bcl-2 G101V) was 8.5769. The IC50 (KMS-12-PE Bcl-2 G101V) was 0.0669 µM, the Ki (BCLXL WT) was 8.4 nM and the “TR_FRET EKI BCLxL/WT selectivty ratio” value (BCLXL WT) was 171.4.
Work on `Cc1c(C(=O)N(c2ccc(O)cc2)c2ccc(OC(C)C)c(C#N)c2)cc(-c2cc3c(cc2C(=O)N2Cc4ccccc4C[C@H]2CN2CCCCC2)CN(C(=O)Cc2ccc(OCCN4CCOCC4)cc2F)CC3)n1C` [Example 168, N-(3-cyano-4-isopropoxyphenyl)-5-[2-(2-{2-fluoro-4-[2-(morpholin-4-yl)ethoxy]phenyl}acetyl)-7-{[(3S)-3-(piperidin-1-ylmethyl)-3,4-dihydro-1H-isoquinolin-2-yl]carbonyl}-3,4-dihydro-1H-isoquinolin-6-yl]-N-(4-hydroxyphenyl)-1,2-dimethylpyrrole-3-carboxamide] yielded a Ki (BCL2 D103Y) of 0.22 nM, a Ki (BCL2 WT) of 0.11 nM and an IC50 (KMS-12-PE Bcl-2 WT) of 0.0075 µM. The Ki (BCL2 G101V [1]) was 0.5 nM, the “TR_FRET EKI G101V/WT selectivty ratio” value (BCL2 G101V [2]) was 4.7 and the “Ratio (G101V/WT)” value (KMS-12-PE Bcl-2 G101V) was 7.4599. For the same molecule, the IC50 (KMS-12-PE Bcl-2 G101V) was 0.0558 µM, the Ki (BCLXL WT) was 11 nM and the “TR_FRET EKI BCLxL/WT selectivty ratio” value (BCLXL WT) was 100.0.

Source: patent US20250179047A1, “5-[7-(3,4-DIHYDRO-1H-ISOQUINOLINE-2-CARBONYL)-1,2,3,4 TETRAHYDROISOQUINOLIN-6-YL]-1H-PYRROLE-3-CARBOXAMIDE DERIVATIVES, PHARMACEUTICAL COMPOSITIONS CONTAINING THEM AND THEIR USES AS PRO-APOPTOTIC AGENTS” (LES LABORATOIRES SERVIER, priority 2022, published 2025)
